Results from ChEMBL document CHEMBL1909046, “DrugMatrix in vitro pharmacology data”.

Legend:
[1] = target: Beta-3 adrenergic receptor (Homo sapiens, UniProt P13945); test: DRUGMATRIX: Adrenergic beta3 radioligand binding (ligand: [125I] Cyanopindolol); assay type: cell membranes, Membrane; conditions: hek293; Not Active = under 50% inhibition at 10 µM
[2] = target: T1, Type-2 angiotensin II receptor (Homo sapiens, UniProt P50052); assay type: cell-based; conditions: cho-k1; note: in other assays of this panel Not Active means under 50% inhibition at 10 µM
T1 sequence (P50052 whole entry): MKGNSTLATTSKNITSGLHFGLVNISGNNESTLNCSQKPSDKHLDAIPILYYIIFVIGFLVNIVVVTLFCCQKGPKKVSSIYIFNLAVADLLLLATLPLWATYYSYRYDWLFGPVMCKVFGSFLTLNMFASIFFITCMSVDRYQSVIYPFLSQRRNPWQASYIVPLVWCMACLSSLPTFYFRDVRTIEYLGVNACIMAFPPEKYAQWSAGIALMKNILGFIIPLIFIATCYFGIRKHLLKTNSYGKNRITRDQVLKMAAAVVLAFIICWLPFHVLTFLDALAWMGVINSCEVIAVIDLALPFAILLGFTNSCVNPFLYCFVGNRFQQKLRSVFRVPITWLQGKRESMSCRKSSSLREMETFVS

[3] = target: T2, B2 bradykinin receptor (Homo sapiens, UniProt P30411); assay type: cell membranes, Membrane; conditions: chem-1; note: in other assays of this panel Not Active means under 50% inhibition at 10 µM
T2 sequence (P30411 whole entry): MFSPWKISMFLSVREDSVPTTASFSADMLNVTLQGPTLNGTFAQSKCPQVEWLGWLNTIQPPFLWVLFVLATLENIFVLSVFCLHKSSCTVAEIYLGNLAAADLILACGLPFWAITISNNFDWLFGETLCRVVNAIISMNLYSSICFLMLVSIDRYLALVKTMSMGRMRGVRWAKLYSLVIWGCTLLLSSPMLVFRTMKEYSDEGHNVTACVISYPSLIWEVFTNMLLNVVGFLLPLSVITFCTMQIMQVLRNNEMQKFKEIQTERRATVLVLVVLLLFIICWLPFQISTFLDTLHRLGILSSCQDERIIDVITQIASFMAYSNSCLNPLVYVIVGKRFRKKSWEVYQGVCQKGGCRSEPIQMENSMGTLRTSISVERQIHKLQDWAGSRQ

[4] = target: Vascular endothelial growth factor receptor 1 (Homo sapiens, UniProt P17948); assay type: cell-based; conditions: huvec; note: in other assays of this panel Not Active means under 50% inhibition at 10 µM
[5] = DRUGMATRIX: Platelet-Derived Growth Factor (PDGF) radioligand binding (ligand: [125I] PDGF); assay type: cell-based; conditions: nih3t3; Not Active = under 50% inhibition at 10 µM
[6] = DRUGMATRIX: Potassium Channel [KATP] radioligand binding (ligand: [3H] Glyburide); assay type: cell membranes, Membrane; conditions: hit-t15; Not Active = under 50% inhibition at 10 µM
[7] = target: T3, Interstitial collagenase (Homo sapiens, UniProt P03956); test: biochemical; assay type: tissue-based, Rheumatoid synovial fibroblasts;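 note: MMP-1 enzyme inhibition assay using a peptide substrate; in other assays of this panel Not Active means under 50% inhibition at 10 µM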
T3 sequence (P03956 whole entry): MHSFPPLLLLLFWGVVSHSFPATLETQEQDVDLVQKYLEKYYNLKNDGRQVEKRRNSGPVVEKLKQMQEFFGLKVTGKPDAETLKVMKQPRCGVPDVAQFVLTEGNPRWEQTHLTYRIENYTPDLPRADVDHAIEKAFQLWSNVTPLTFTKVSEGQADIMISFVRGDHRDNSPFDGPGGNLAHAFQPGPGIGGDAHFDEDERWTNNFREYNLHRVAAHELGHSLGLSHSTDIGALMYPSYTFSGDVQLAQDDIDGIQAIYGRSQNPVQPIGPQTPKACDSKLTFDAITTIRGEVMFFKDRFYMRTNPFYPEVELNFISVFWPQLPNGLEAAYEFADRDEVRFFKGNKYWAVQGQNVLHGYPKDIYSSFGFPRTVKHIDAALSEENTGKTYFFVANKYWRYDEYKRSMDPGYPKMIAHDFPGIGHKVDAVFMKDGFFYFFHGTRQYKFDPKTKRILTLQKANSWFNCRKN

[8] = target: T4, Cytochrome P450 2A6 (Homo sapiens, UniProt P11509); conditions: bti-tn-5b1-4; note: in other assays of this panel Not Active means under 50% inhibition at 10 µM
T4 sequence (P11509 whole entry): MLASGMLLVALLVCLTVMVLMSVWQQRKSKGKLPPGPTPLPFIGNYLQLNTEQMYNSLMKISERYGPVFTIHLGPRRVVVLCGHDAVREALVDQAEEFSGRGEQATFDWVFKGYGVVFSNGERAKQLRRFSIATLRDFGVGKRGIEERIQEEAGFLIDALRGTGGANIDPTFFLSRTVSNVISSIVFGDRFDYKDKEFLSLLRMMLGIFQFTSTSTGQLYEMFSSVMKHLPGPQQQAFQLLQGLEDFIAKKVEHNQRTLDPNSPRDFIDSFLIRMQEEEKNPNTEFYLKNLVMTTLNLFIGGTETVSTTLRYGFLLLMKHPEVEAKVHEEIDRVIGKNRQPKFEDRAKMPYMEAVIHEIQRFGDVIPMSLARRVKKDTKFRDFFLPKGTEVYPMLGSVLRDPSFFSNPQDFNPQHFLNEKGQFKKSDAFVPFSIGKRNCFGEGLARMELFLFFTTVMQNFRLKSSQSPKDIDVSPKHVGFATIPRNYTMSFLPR

Vascular endothelial growth factor receptor 1, sequence (P17948 whole entry): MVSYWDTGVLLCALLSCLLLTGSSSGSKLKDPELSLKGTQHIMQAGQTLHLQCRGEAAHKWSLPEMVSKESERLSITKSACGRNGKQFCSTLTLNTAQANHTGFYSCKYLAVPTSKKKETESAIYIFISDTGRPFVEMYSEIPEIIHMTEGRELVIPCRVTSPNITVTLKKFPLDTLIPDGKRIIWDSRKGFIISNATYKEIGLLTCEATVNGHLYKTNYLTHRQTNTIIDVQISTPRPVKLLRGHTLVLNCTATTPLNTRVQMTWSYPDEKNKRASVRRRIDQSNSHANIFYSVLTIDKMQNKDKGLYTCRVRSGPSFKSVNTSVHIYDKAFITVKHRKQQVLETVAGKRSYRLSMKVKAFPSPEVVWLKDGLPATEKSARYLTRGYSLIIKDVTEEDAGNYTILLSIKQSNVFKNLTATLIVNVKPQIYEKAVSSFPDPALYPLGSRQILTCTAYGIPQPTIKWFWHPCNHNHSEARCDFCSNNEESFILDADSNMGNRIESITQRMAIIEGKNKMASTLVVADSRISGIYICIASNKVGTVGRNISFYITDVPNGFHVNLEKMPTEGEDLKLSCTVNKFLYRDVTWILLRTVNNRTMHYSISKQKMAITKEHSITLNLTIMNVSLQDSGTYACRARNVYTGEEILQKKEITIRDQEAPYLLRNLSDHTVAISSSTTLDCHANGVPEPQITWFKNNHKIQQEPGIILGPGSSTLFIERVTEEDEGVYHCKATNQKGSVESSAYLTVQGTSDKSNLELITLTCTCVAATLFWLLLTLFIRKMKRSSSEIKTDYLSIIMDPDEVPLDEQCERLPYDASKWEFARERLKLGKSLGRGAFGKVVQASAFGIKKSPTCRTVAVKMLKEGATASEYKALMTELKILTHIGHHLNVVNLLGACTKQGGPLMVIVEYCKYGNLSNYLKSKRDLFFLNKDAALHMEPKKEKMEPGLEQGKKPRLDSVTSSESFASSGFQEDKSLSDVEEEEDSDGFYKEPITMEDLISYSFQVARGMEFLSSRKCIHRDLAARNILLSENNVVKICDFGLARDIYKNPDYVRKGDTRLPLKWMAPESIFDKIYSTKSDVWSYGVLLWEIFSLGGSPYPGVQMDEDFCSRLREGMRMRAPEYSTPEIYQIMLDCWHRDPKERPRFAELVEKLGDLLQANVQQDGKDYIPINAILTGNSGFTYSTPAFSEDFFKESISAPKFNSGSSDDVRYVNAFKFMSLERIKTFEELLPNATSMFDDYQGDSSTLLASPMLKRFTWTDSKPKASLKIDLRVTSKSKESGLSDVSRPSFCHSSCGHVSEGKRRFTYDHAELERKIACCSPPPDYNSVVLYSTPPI
Beta-3 adrenergic receptor, sequence (P13945 whole entry): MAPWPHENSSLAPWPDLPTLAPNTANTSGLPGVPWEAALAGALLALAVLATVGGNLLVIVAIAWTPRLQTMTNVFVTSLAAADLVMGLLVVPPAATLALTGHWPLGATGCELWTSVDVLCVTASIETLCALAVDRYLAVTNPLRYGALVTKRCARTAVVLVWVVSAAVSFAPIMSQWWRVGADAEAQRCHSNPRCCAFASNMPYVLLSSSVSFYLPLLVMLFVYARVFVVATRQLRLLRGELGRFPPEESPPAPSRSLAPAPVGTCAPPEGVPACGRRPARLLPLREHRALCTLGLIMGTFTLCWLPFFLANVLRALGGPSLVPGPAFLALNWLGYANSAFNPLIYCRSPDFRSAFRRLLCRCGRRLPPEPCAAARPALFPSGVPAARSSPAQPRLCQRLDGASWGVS

CADMIUM DICHLORIDE
Not Active: IC50 [1] | Ki [1] | IC50 [2] | Ki [2] | IC50 [3] | Ki [3] | IC50 [4] | Ki [4] | IC50 [5] | Ki [5] | IC50 [6] | Ki [6] | IC50 [7] | Ki [7] | IC50 [8] | Ki [8]

CCCN(CCC)C(=O)C(CCC(=O)O)NC(=O)c1ccccc1 (stereo not given) [PROGLUMIDE]
Not Active: IC50 [1] | IC50 [2] | IC50 [3] | IC50 [4] | IC50 [5] | Ki [5] | IC50 [6] | Ki [6] | IC50 [7] | IC50 [8] | Ki [8]

O=C(N[C@H](CO)[C@H](O)c1ccc([N+](=O)[O-])cc1)C(Cl)Cl [CHLORAMPHENICOL]
Not Active: IC50 [1] | IC50 [2] | IC50 [3] | IC50 [4] | IC50 [5] | Ki [5] | IC50 [6] | Ki [6] | IC50 [7]

CCCCOc1ccc(OCCCN2CCOCC2)cc1 [PRAMOXINE]
Not Active: IC50 [1] | IC50 [2] | IC50 [3] | IC50 [4] | IC50 [5] | Ki [5] | IC50 [6] | Ki [6] | IC50 [7] | IC50 [8] | Ki [8]

CC(C)(C(=O)c1cccnc1)c1cccnc1 [METYRAPONE]
Not Active: IC50 [1] | IC50 [2] | IC50 [3] | IC50 [4] | IC50 [5] | Ki [5] | IC50 [6] | Ki [6] | IC50 [7] | IC50 [8] | Ki [8]

CC(=O)Nc1cccc(O)c1 [METACETAMOL]
Not Active: IC50 [1] | IC50 [2] | IC50 [3] | IC50 [4] | IC50 [5] | Ki [5] | IC50 [6] | Ki [6] | IC50 [7] | IC50 [8] | Ki [8]

NC(=O)c1cnccn1 [PYRAZINAMIDE]
Not Active: IC50 [1] | IC50 [2] | IC50 [3] | IC50 [4] | IC50 [5] | Ki [5] | IC50 [6] | Ki [6] | IC50 [7] | IC50 [8] | Ki [8]

CC[C@@H](CO)NCCN[C@@H](CC)CO [ETHAMBUTOL]
Not Active: IC50 [1] | IC50 [2] | IC50 [3] | IC50 [4] | IC50 [5] | Ki [5] | IC50 [6] | Ki [6] | IC50 [7] | IC50 [8] | Ki [8]

CC(C)(Oc1ccc(C2CCCc3ccccc32)cc1)C(=O)O (stereo not given) [NAFENOPIN]
Not Active: IC50 [1] | IC50 [2] | IC50 [3] | IC50 [4] | IC50 [5] | Ki [5] | IC50 [6] | Ki [6] | IC50 [7] | IC50 [8] | Ki [8]

C[C@@H]1C[C@@H]([C@H](O)CC2CC(=O)NC(=O)C2)C(=O)[C@@H](C)C1 [CYCLOHEXIMIDE]
Not Active: IC50 [1] | IC50 [2] | IC50 [3] | IC50 [4] | IC50 [5] | Ki [5] | IC50 [6] | Ki [6] | IC50 [7]

CCn1cc(C(=O)O)c(=O)c2cc(F)c(N3CCN(C)CC3)cc21 [PEFLOXACIN]
Not Active: IC50 [1] | IC50 [2] | IC50 [3] | IC50 [4] | IC50 [5] | Ki [5] | IC50 [6] | Ki [6] | IC50 [7]

CCN(CC)CCOC(=O)c1ccc(N)cc1 [PROCAINE]
Not Active: IC50 [1] | IC50 [2] | IC50 [3] | IC50 [4] | IC50 [5] | Ki [5] | IC50 [6] | Ki [6] | IC50 [7] | IC50 [8] | Ki [8]

CCCC(CCC)C(=O)O [VALPROIC ACID]
Not Active: IC50 [1] | IC50 [2] | IC50 [3] | IC50 [4] | IC50 [5] | Ki [5] | IC50 [6] | Ki [6] | IC50 [7] | IC50 [8] | Ki [8]

S=C=Nc1cccc2ccccc12 [1-NAPHTHYLISOTHIOCYANATE]
Not Active: IC50 [1] | IC50 [2] | IC50 [3] | IC50 [4] | IC50 [5] | Ki [5] | IC50 [6] | Ki [6] | IC50 [7] | IC50 [8] | Ki [8]

COc1ccc2cc([C@H](C)C(=O)O)ccc2c1 [NAPROXEN]
Not Active: IC50 [1] | IC50 [2] | IC50 [3] | IC50 [4] | IC50 [5] | Ki [5] | IC50 [6] | Ki [6] | IC50 [7]

Cc1ccccc1C(=O)N1CCC(Cc2ccccc2)CC1
Not Active: IC50 [1] | IC50 [2] | IC50 [3] | IC50 [4] | IC50 [5] | Ki [5] | IC50 [6] | Ki [6] | IC50 [7] | IC50 [8] | Ki [8]

NC(=O)NO [HYDROXYUREA]
Not Active: IC50 [1] | IC50 [2] | IC50 [3] | IC50 [4] | IC50 [5] | Ki [5] | IC50 [6] | Ki [6] | IC50 [7]

O=NN(CCCl)C(=O)NCCCl [CARMUSTINE]
Not Active: IC50 [1] | IC50 [2] | IC50 [3] | IC50 [4] | IC50 [5] | Ki [5] | IC50 [6] | Ki [6] | IC50 [7]

C/C=C/C[C@@H](C)[C@@H](O)[C@H]1C(=O)N[C@@H](CC)C(=O)N(C)CC(=O)N(C)[C@@H](CC(C)C)C(=O)N[C@@H](C(C)C)C(=O)N(C)[C@@H](CC(C)C)C(=O)N[C@@H](C)C(=O)N[C@H](C)C(=O)N(C)[C@@H](CC(C)C)C(=O)N(C)[C@@H](CC(C)C)C(=O)N(C)[C@@H](C(C)C)C(=O)N1C [CYCLOSPORINE]
Not Active: IC50 [1] | IC50 [2] | IC50 [3] | IC50 [4] | IC50 [5] | Ki [5] | IC50 [6] | Ki [6] | IC50 [7]
